Test system: IL-1β production in PMA-differentiated THP-1 cells
Assay: IL-1β production in PMA-differentiated THP-1 cells stimulated with gramicidin (hTHP-1 assay)
Type: cell-based, human
Procedure: Procedure 1: IL-1β Production in PMA-Differentiated THP-1 Cells Stimulated with Gramicidin
THP-1 cells were purchased from the American Type Culture Collection and sub-cultured according to instructions from the supplier. Cells were cultured in complete RPMI 1640 (containing 10% heat inactivated FBS, penicillin (100 units/ml) and streptomycin (100 μg/ml)), and maintained in log phase prior to experimental setup. Prior to the experiment, compounds were dissolved in dimethyl sulfoxide (DMSO) to generate a 30 mM stock. The compound stock was first pre-diluted in DMSO to 3, 0.34, 0.042 and 0.0083 mM intermediate concentrations and subsequently spotted using Echo550 liquid handler into an empty 384-well assay plate to achieve desired final concentration (e.g. 100, 33, 11, 3.7, 1.2, 0.41, 0.14, 0.046, 0.015, 0.0051, 0.0017 μM). DMSO was backfilled in the plate to achieve a final DMSO assay concentration of 0.37%. The plate was then sealed and stored at room temperature until required.
THP-1 cells were treated with PMA (Phorbol 12-myristate 13-acetate) (20 ng/ml) for 16-18 hours. On the day of the experiment the media was removed and adherent cells were detached with trypsin for 5 minutes. Cells were then harvested, washed with complete RPMI 1640, spun down, and resuspended in RPMI 1640 (containing 2% heat inactivated FBS, penicillin (100 units/ml) and streptomycin (100 μg/ml). The cells were plated in the 384-well assay plate containing the spotted compounds at a density of 50,000 cells/well (final assay volume 50 μl). Cells were incubated with compounds for 1 hour and then stimulated with gramicidin (5 μM) (Enzo) for 2 hours. Plates were then centrifuged at 340 g for 5 min. Cell free supernatant ([…]) was collected using a 96-channel PlateMaster (Gilson) and the production of IL-1β was evaluated by HTRF (cisbio). The plates were incubated for 18 h at 4° C. and read using the preset HTRF program (donor emission at 620 nm, acceptor emission at 668 nm) of the SpectraMax i3x spectrophotometer (Molecular Devices, software SoftMax 6). A vehicle only control and a dose titration of CRID3 (100-0.0017 μM) were run concurrently with each experiment.
Procedure 2: […] Production in PMA-Differentiated THP-1 Cells Stimulated with Gramicidin
THP-1 cells were purchased from the American Type Culture Collection and sub-cultured according to instructions from the supplier. Prior to experiments, cells were cultured in complete RPMI 1640 (containing 10% heat inactivated FBS, penicillin (100 units/ml) and streptomycin (100 μg/ml)), and maintained in log phase prior to experimental setup. Prior to the experiment THP-1 were treated with PMA (Phorbol 12-myristate 13-acetate) (20 ng/ml) for 16-18 hours. Compounds were dissolved in dimethyl sulfoxide (DMSO) to generate a 30 mM stock. On the day of the experiment the media was removed and adherent cells were detached with trypsin for 5 minutes. Cells were then harvested, washed with complete RPMI 1640, spun down, resuspended in RPMI 1640 (containing 2% heat inactivated FBS, penicillin (100 units/ml) and streptomycin (100 μg/ml). The cells were plated in a 384-well plate at a density of 50,000 cells/well (final assay volume 50 μl). Compounds were first dissolved in assay medium to obtain a 5× top concentration of 500 μM. 10 step dilutions (1:3) were then undertaken in assay medium containing 1.67% DMSO. 5× compound solutions were added to the culture medium to achieve desired final concentration (e.g. 100, 33, 11, 3.7, 1.2, 0.41, 0.14, 0.046, 0.015, 0.0051, 0.0017 μM). Final DMSO concentration was at 0.37%. Cells were incubated with compounds for 1 hour and then stimulated with gramicidin (5 μM) (Enzo) for 2 hours. Plates were then centrifuged at 340 g for 5 min. Cell free supernatant (40 μL) was collected using a 96-channel PlateMaster (Gilson) and the production of IL-1β was evaluated by HTRF (cisbio). A vehicle only control and a dose titration of CRID3 (100-0.0017 μM) were run concurrently with each experiment. […]

[1] = Average IC50, hTHP-1 assay containing 2% fetal bovine serum, Table 10, class symbols
[2] = Average IC50, hTHP-1 assay containing 2% fetal bovine serum, Table 10, numeric values
[3] = Homo sapiens, THP-1, Average IC50, hTHP-1 assay containing 2% fetal bovine serum, Table 10, numeric values
[4] = Homo sapiens, THP-1, Average IC50, hTHP-1 assay containing 2% fetal bovine serum, Table 10, class symbols
[5] = Homo sapiens, THP-1, Average IC50, hTHP-1 assay containing 2% fetal bovine serum, Table 3B, class symbols

Compound | IC50 [3] | other results
CN(C)CCCS(N)(=O)=NC(=O)Nc1c2c(cc3c1CCC3)CCC2 (single isomer, unassigned) [Compound 142, 3-(dimethylamino)-N′-((1,2,3,5,6,7-hexahydro-s-indacen-4-yl)carbamoyl)propane-1-sulfonimidamide] | – | IC50 [1]: 1 to 5 µM
CC(C)c1cc(F)cc(C(C)C)c1CC(=O)N=S(N)(=O)CCCN(C)C (centres unmarked) [Compound 303] | – | IC50 [2]: > 30 µM
CS(=O)(=NC(=O)Nc1c2c(cc3c1CCC3)CCC2)NC(=O)c1ccccc1 (centres unmarked) [Compound 108] | > 30 µM | –
CN(C)S(C)(=O)=NC(=O)Nc1c2c(cc3c1CCC3)CCC2 (single isomer, unassigned) [Compound 102, N′-((1,2,3,5,6,7-hexahydro-s-indacen-4-yl)carbamoyl)-N,N-dimethylmethanesulfonimidamide] | – | IC50 [2]: > 30 µM
CC(C)c1cc(F)cc(C(C)C)c1CC(=O)NS(=O)(=O)Cc1ccccc1C(=O)O [Compound 517] | > 100 µM | –
COC(=O)CCCS(=O)(=O)NC(=O)Cc1c(C(C)C)cc(F)cc1C(C)C [Compound 513] | > 30 µM | –
CN(C)Cc1ccc(CS(N)(=O)=NC(=O)Nc2c3c(cc4c2CCC4)CCC3)cc1 (single isomer, unassigned) [Compound 106] | – | IC50 [4]: 1 to 5 µM
COC(=O)CS(=O)(=O)NC(=O)Cc1c(C(C)C)cc(F)cc1C(C)C [Compound 501] | > 100 µM | –
NS(=O)(=NC(=O)Nc1c2c(cc3c1CCC3)CCC2)C1CCCCC1 (centres unmarked) [Compound 148] | – | IC50 [2]: > 30 µM
CC(C)c1ncc(CS(=O)(=O)NC(=O)Cc2c(C(C)C)cc(F)cc2C(C)C)s1 [Compound 505] | > 97.1 µM | –
NS(=O)(=NC(=O)Nc1c2c(cc3c1CCC3)CCC2)C1Cc2ccccc2C1 (single isomer, unassigned) [Compound 130] | > 30 µM | –
CC(C)c1cc(F)cc(C(C)C)c1CC(=O)NS(=O)(=O)Cc1cccc(C(C)(C)O)c1 [Compound 502] | > 100 µM | –
NS(=O)(=NC(=O)Nc1c2c(cc3c1CCC3)CCC2)C1CC1 (single isomer, unassigned) [Compound 154] | – | IC50 [4]: 5 to 30 µM
CC(CCc1ccccc1)S(N)(=O)=NC(=O)Nc1c2c(cc3c1CCC3)CCC2 (centres unmarked) [Compound 109] | – | IC50 [4]: 5 to 30 µM
CN1CCC(S(N)(=O)=NC(=O)Nc2c3c(cc4c2CCC4)CCC3)C1 (single isomer, unassigned) [Compound 134, N′-((1,2,3,5,6,7-hexahydro-s-indacen-4-yl)carbamoyl)-1-methylpyrrolidine-3-sulfonimidamide] | > 30 µM | –
NS(=O)(=NC(=O)Nc1c2c(cc3c1CCC3)CCC2)C1CCCCC1 (centres unmarked) [Compound 147] | > 30 µM | –
NS(=O)(=NC(=O)Nc1c2c(cc3c1CCC3)CCC2)C1CCC1 (single isomer, unassigned) [Compound 145] | > 30 µM | –
CC(C)c1cc(F)cc(C(C)C)c1CC(=O)N=S(N)(=O)C1CCCC1 (centres unmarked) [Compound 305] | – | IC50 [2]: > 30 µM
CN(C)CCCS(N)(=O)=NC(=O)Nc1c2c(cc3c1CCC3)CCC2 (single isomer, unassigned) [Compound 143, 3-(dimethylamino)-N′-((1,2,3,5,6,7-hexahydro-s-indacen-4-yl)carbamoyl)propane-1-sulfonimidamide] | – | IC50 [1]: 5 to 30 µM
CC1(S(N)(=O)=NC(=O)Nc2c3c(cc4c2CCC4)CCC3)CC1 (centres unmarked) [Compound 161] | > 30 µM | –
NS(=O)(=NC(=O)Nc1c2c(cc3c1CCC3)CCC2)C1Cc2ccccc2C1 (single isomer, unassigned) [Compound 129] | – | IC50 [4]: 5 to 30 µM
CC(C)c1cc(F)cc(C(C)C)c1CC(=O)NS(=O)(=O)Cc1cnn(C)c1 [Compound 528] | > 30 µM | –

Compound | IC50 [3] | other results
CC(C)c1cc(F)cc(C(C)C)c1CC(=O)NS(=O)(=O)Cc1ccccc1 [Compound 511] | > 100 µM | –
CC(C)(O)c1ccc(CS(N)(=O)=NC(=O)Nc2c3c(cc4c2CCC4)CCC3)cc1 (single isomer, unassigned) [Compound 165a] | – | IC50 [1]: 1 to 5 µM
CC(C)c1cc(F)cc(C(C)C)c1CC(=O)NS(=O)(=O)CCCC(=O)O [Compound 512] | > 100 µM | –
CN1CCC(S(N)(=O)=NC(=O)Nc2c3c(cc4c2CCC4)CCC3)CC1 (centres unmarked) [Compound 138] | – | IC50 [2]: > 30 µM
CC(C)c1cc(F)cc(C(C)C)c1CC(=O)NS(=O)(=O)Cc1ccc(C(C)(C)O)cc1 [Compound 506] | – | IC50 [4]: 5 to 30 µM
CC(C)c1cc(F)cc(C(C)C)c1CC(=O)NS(=O)(=O)Cc1cccnc1 [Compound 522] | > 100 µM | –
CS(N)(=O)=NC(=O)Nc1c2c(cc3c1CCC3)CCC2 (centres unmarked) [Compound 115, N′-((1,2,3,5,6,7-hexahydro-s-indacen-4-yl)carbamoyl) methane-sulfonimidamide] | – | IC50 [4]: 5 to 30 µM
CC(C)c1cc(F)cc(C(C)C)c1NC(=O)NS(=O)(=O)C1CC1 [Compound 401] | 31.5 µM | –
CN(C)Cc1ccc(CS(N)(=O)=NC(=O)Nc2c3c(cc4c2CCC4)CCC3)cc1 (single isomer, unassigned) [Compound 105] | > 30 µM | –
NS(=O)(=NC(=O)Nc1c2c(cc3c1CCC3)CCC2)C1CCC1 (centres unmarked) [Compound 149, N′-((1,2,3,5,6,7-hexahydro-s-indacen-4-yl)carbamoyl) cyclobutane-sulfonimidamide] | > 30 µM | –
CC(C)c1cc(Cl)cc(C(C)C)c1NC(=O)NS(=O)(=O)CC(=O)c1ccsc1 [Compound 403] | – | IC50 [4]: 5 to 30 µM
NS(=O)(=NC(=O)Nc1c2c(cc3c1CCC3)CCC2)C1CC1 (centres unmarked) [Compound 156, N′-((1,2,3,5,6,7-hexahydro-s-indacen-4-yl)carbamoyl) cyclopropane-sulfonimidamide] | > 30 µM | –
CC(C)c1cc(F)cc(C(C)C)c1CC(=O)NS(=O)(=O)CC(=O)O [Compound 503] | > 100 µM | –
NS(=O)(=NC(=O)Nc1c2c(cc3c1CCC3)CCC2)C1CCCCC1 (centres unmarked) [Compound 150] | – | IC50 [2]: > 30 µM
NS(=O)(=NC(=O)Nc1c2c(cc3c1CCC3)CCC2)C1CCC1 (single isomer, unassigned) [Compound 146] | – | IC50 [2]: > 30 µM
CC(CN(C)C)CS(N)(=O)=NC(=O)Nc1c2c(cc3c1CCC3)CCC2 (single isomer, unassigned) [Compound 127, 3-(dimethylamino)-N′-((1,2,3,5,6,7-hexahydro-s-indacen-4-yl)carbamoyl)-2-methylpropane-1-sulfonimidamide] | – | IC50 [2]: > 30 µM
CC(C)c1cc(C#N)cc(C(C)C)c1CC(=O)NS(=O)(=O)N1CCCCC1 [Compound 201B, 2-(4-cyano-2,6-diisopropylphenyl)-N-(piperidin-1-ylsulfonyl)acetamide] | – | IC50 [5]: 5 to 30 µM
CS(N)(=O)=NC(=O)Nc1c2c(cc3c1CCC3)CCC2 (single isomer, unassigned) [Compound 116] | > 30 µM | –
CN(C)S(C)(=O)=NC(=O)Nc1c2c(cc3c1CCC3)CCC2 (single isomer, unassigned) [Compound 101, N′-((1,2,3,5,6,7-hexahydro-s-indacen-4-yl)carbamoyl)-N,N-dimethylmethanesulfonimidamide] | > 30 µM | –
CC(C)c1cc(C#N)cc(C(C)C)c1CC(=O)NS(=O)(=O)N1CCC(C(C)(C)O)C1 (centres unmarked) [Compound 203B] | – | IC50 [5]: 5 to 30 µM
CC(C)c1cccc(C(C)C)c1NC(=O)NS(=O)(=O)CC(O)c1ccsc1 (centres unmarked) [Compound 402] | – | IC50 [4]: 5 to 30 µM
COC(=O)c1cccc(CS(=O)(=O)NC(=O)Cc2c(C(C)C)cc(F)cc2C(C)C)c1 [Compound 514] | > 100 µM | –

Source: US20220227707A1, “COMPOUNDS AND COMPOSITIONS FOR TREATING CONDITIONS ASSOCIATED WITH NLRP ACTIVITY” (Novartis AG, priority 2019, published 2022)
